{"source": "patent US20150297310A1", "about": "“METHODS FOR SELECTING A TREATMENT FOR CANCER” (priority 2014, published 2015)", "origin": "cited, not measured here", "tested_on": "AB1-HA tumor", "conditions": "AB1-HA tumor model, CTX treatment at Day 9", "data": [{"smiles": "O=P1(N(CCCl)CCCl)NCCCO1", "note": "(stereo not shown) [CTX, Cyclophosphamide]", "values": [{"measurement": "cure rate", "result": 75, "unit": "%"}]}]}
